From patent US8735364B2, “Antisense modulation of apolipoprotein B expression” (Genzyme Corporation, priority 2001, dated 2014)
Oligonucleotides are written 5' to 3', each unit as a sugar letter and its base; * is a phosphorothioate linkage, no mark a phosphodiester; rarer units and linkages stand in square brackets, end groups in braces. Plain capitals give the bases only. e = 2'-O-(2-methoxyethyl) (MOE); [5mC] = 5-methylcytosine; d = 2'-deoxy (DNA)

Columns and labels:
[1] = test system: human apolipoprotein B mRNA; experiment: Inhibition of human apolipoprotein B mRNA levels in HepG2 cells, quantitative real-time PCR; type: cell-based; design: %INHIB of human apolipoprotein B mRNA levels: concentration or dose not given beside the values; conditions: for %INHIB of human apolipoprotein B mRNA levels: averages from two experiments
Method: The human hepatoblastoma cell line HepG2 was obtained from the American Type Culture Collection (Manassas, Va.). HepG2 cells were routinely cultured in Eagle's MEM supplemented with 10% fetal calf serum, non-essential amino acids, and 1 mM sodium pyruvate (Gibco/Life Technologies, Gaithersburg, Md.). Cells were routinely passaged by trypsinization and dilution when they reached 90% confluence. Cells were seeded into 96-well plates (Falcon-Primaria #3872) at a density of 7000 cells/well for use in RT-PCR analysis.
(§1) When cells reached 80% confluency, they were treated with oligonucleotide. For cells grown in 96-well plates, wells were washed once with 200 μL OPTI-MEM™-1 reduced-serum medium (Gibco BRL) and then treated with 130 μL of OPTI-MEM™-1 containing 3.75 μg/mL LIPOFECTIN™ (Gibco BRL) and the desired concentration of oligonucleotide. After 4-7 hours of treatment, the medium was replaced with fresh medium. Cells were harvested 16-24 hours after oligonucleotide treatment.
(§2) Quantitation of apolipoprotein B mRNA levels was determined by real-time quantitative PCR using the ABI PRISM™ 7700 Sequence Detection System (PE-Applied Biosystems, Foster City, Calif.) according to manufacturer's instructions. This is a closed-tube, non-gel-based, fluorescence detection system which allows high-throughput quantitation of polymerase chain reaction (PCR) products in real-time. As opposed to standard PCR, in which amplification products are quantitated after the PCR is completed, products in real-time quantitative PCR are quantitated as they accumulate. This is accomplished by including in the PCR reaction an oligonucleotide probe that anneals specifically between the forward and reverse PCR primers, and contains two fluorescent dyes. A reporter dye (e.g., JOE, FAM, or VIC, obtained from either Operon Technologies Inc., Alameda, Calif. or PE-Applied Biosystems, Foster City, Calif.) is attached to the 5′ end of the probe and a quencher dye (e.g., TAMRA, obtained from either Operon Technologies Inc., Alameda, Calif. or PE-Applied Biosystems, Foster City, Calif.) is attached to the 3′ end of the probe. When the probe and dyes are intact, reporter dye emission is quenched by the proximity of the 3′ quencher dye. During amplification, annealing of the probe to the target sequence creates a substrate that can be cleaved by the 5′-exonuclease activity of Taq polymerase. […] With each cycle, additional reporter dye molecules are cleaved from their respective probes, and the fluorescence intensity is monitored at regular intervals by laser optics built into the ABI PRISM™ 7700 Sequence Detection System. In each assay, a series of parallel reactions containing serial dilutions of mRNA from untreated control samples generates a standard curve that is used to quantitate the percent inhibition after antisense oligonucleotide treatment of test samples.
(§3) PCR reagents were obtained from PE-Applied Biosystems, Foster City, Calif. RT-PCR reactions were carried out by adding 25 μL PCR cocktail (1× TAQMAN™ buffer A, 5.5 mM MgCl2, 300 μM each of DATP, dCTP and dGTP, 600 μM of dUTP, 100 nM each of forward primer, reverse primer, and probe, 20 Units RNAse inhibitor, 1.25 Units AMPLITAQ GOLD™, and 12.5 Units MuLV reverse transcriptase) to 96 well plates containing 25 μL total RNA solution. The RT reaction was carried out by incubation for 30 minutes at 48° C. Following a 10 minute incubation at 95° C. to activate the AMPLITAQ GOLD™, 40 cycles of a two-step PCR protocol were carried out: 95° C. for 15 seconds (denaturation) followed by 60° C. for 1.5 minutes (annealing/extension).
(§4) Gene target quantities obtained by real time RT-PCR are normalized using either the expression level of GAPDH, a gene whose expression is constant, or by quantifying total RNA using RiboGreen™ (Molecular Probes, Inc. Eugene, Oreg.). GAPDH expression is quantified by real time RT-PCR, by being run simultaneously with the target, multiplexing, or separately. […]

[2] = test system: mouse apolipoprotein B mRNA; experiment: Inhibition of mouse apolipoprotein B mRNA levels in primary hepatocytes, quantitative real-time PCR; type: cell-based; design: %INHIB of mouse apolipoprotein B mRNA levels: concentration or dose not given beside the values; conditions: averages from two experiments
Method: Primary mouse hepatocytes were prepared from CD-1 mice purchased from Charles River Labs (Wilmington, Mass.) and were routinely cultured in Hepatoyte Attachment Media (Gibco) supplemented with 10% Fetal Bovine Serum (Gibco/Life Technologies, Gaithersburg, Md.), 250 nM dexamethasone (Sigma), and 10 nM bovine insulin (Sigma). Cells were seeded into 96-well plates (Falcon-Primaria #3872) at a density of 10000 cells/well for use in RT-PCR analysis.
as §1, §2, §3
as §4, with “separately. Total RNA is quantified using RiboGreen™ RNA quantification reagent from Molecular Probes.” for “separately.”

Substance | %INHIB of human apolipoprotein B mRNA levels [1] [%] | %INHIB of mouse apolipoprotein B mRNA levels [2] [%] | other results
147801 (antisense e[5mC]*eA*eG*eA*e[5mC]*d[5mC]*d[5mC]*dG*dA*d[5mC]*dT*d[5mC]*dG*dT*dG*eG*eA*eA*eG*eA) [compound 147801] | 38 | – | –
147786 (antisense e[5mC]*eT*eT*eG*eA*dA*dT*d[5mC]*dA*dG*d[5mC]*dA*dG*dT*d[5mC]*e[5mC]*e[5mC]*eA*eG*eG) [compound 147786] | 34 | – | –
147814 (antisense e[5mC]*e[5mC]*e[5mC]*eA*eA*dT*dA*dA*dG*dA*dT*dT*dT*dA*dT*eA*eA*e[5mC]*eA*eA) [compound 147814] | 34 | – | –
147788 (antisense eT*eT*eT*e[5mC]*eT*dG*dT*dT*dG*d[5mC]*d[5mC]*dA*d[5mC]*dA*dT*eT*eG*e[5mC]*e[5mC]*e[5mC]) [compound 147788] | 95 | – | Percent Inhibition of human apolipoprotein B mRNA levels ([1]; 50 nM): 54%; Percent Inhibition of human apolipoprotein B mRNA levels ([1]; 150 nM): 63%; Percent Inhibition of human apolipoprotein B mRNA levels ([1]; 250 nM): 72%
147792 (antisense eG*eG*eA*e[5mC]*eA*d[5mC]*d[5mC]*dT*d[5mC]*dA*dA*dT*d[5mC]*dA*dG*e[5mC]*eT*eG*eT*eG) [compound 147792] | 26 | – | –
147815 (antisense eT*eG*eG*e[5mC]*e[5mC]*dT*dA*d[5mC]*d[5mC]*dA*dG*dA*dG*dA*d[5mC]*eA*eG*eG*eT*eA) [compound 147815] | 45 | – | –
147785 (antisense eG*e[5mC]*e[5mC]*e[5mC]*eG*d[5mC]*d[5mC]*dA*dG*d[5mC]*dA*dG*d[5mC]*dA*dG*e[5mC]*eA*eG*e[5mC]*eA) [compound 147785] | 29 | – | –
147790 (antisense eT*eG*eT*eG*e[5mC]*dT*dA*d[5mC]*d[5mC]*dA*dT*d[5mC]*d[5mC]*d[5mC]*dA*eT*eA*e[5mC]*eT*eT) [compound 147790] | 33 | – | –
147810 (antisense eA*eT*eT*eT*e[5mC]*dA*dG*d[5mC]*dA*dT*dA*dT*dG*dA*dG*e[5mC]*e[5mC]*e[5mC]*eA*eT) [compound 147810] | 0 | – | –
147499 (antisense e[5mC]*eT*eG*e[5mC]*eA*dG*dG*dG*d[5mC]*dG*dT*d[5mC]*dA*dG*dT*eG*eA*e[5mC]*eA*eA) [compound 147499] | – | 29 | –
147763 (antisense eT*eG*e[5mC]*eG*eA*d[5mC]*dT*dG*dT*dG*dT*d[5mC]*dT*dG*dA*eT*eT*eT*e[5mC]*e[5mC]) [compound 147763] | – | 34 | –
147481 (antisense eT*eG*eA*e[5mC]*eT*dG*dT*d[5mC]*dA*dA*dG*dG*dG*dT*dG*eA*eG*e[5mC]*eT*eG) [compound 147481] | – | 24 | –
147482 (antisense eG*eT*e[5mC]*e[5mC]*eA*dG*d[5mC]*d[5mC]*dT*dA*dG*dG*dA*dA*d[5mC]*eA*e[5mC]*eT*e[5mC]*eA) [compound 147482] | – | 59 | –
147778 (antisense eT*e[5mC]*eA*eG*eA*dT*dA*dT*dA*d[5mC]*dA*dT*dT*dG*dG*e[5mC]*eT*eT*e[5mC]*eA) [compound 147778] | – | 14 | –
147772 (antisense eG*eT*eT*eA*eT*dA*dA*dA*dG*dT*d[5mC]*d[5mC]*dA*dG*d[5mC]*eA*eT*eT*eG*eG) [compound 147772] | – | 78 | –
147759 (antisense eA*eG*eG*eT*eG*dA*dG*dG*dA*dA*dG*dT*dT*dG*dG*eA*eA*eT*eT*e[5mC]) [compound 147759] | – | 19 | –
147478 (antisense eT*e[5mC]*e[5mC]*eA*eG*dG*dA*dA*dT*dT*dG*dA*dG*d[5mC]*dT*eT*eG*eT*eG*e[5mC]) [compound 147478] | – | 78 | –
147765 (antisense eA*eG*eG*e[5mC]*e[5mC]*d[5mC]*dA*dG*dT*dT*d[5mC]*d[5mC]*dA*dT*dG*eA*e[5mC]*e[5mC]*e[5mC]*eT) [compound 147765] | – | 59 | –
